According to paper PMC7181660, “A novel specific PERK activator reduces toxicity and extends survival in Huntington's disease models” (Scientific Reports, 2020):
“And” between values parts separate entries of the source, which are not always exact repeats. Identical values can stand only once. Like-named read-outs stand apart in the source and are kept apart here.

Legend:
Experiment in all cases: biochemical
Type in all cases: biochemical
[1] = target: panel of 391 kinases (Homo sapiens, UniProt Q15120); settings: kinase PDK3/PDHK3, compound at 1 µM, single dose in duplicates, 1 µM ATP
[2] = target: panel of 391 kinases (Homo sapiens, UniProt P78362); settings: SRPK2, MK-28 1 µM, ATP 1 µM
[3] = target: panel of 391 kinases (Homo sapiens, UniProt O95835); settings: LATS1, MK-28 1 µM, ATP 1 µM
[4] = target: panel of 391 kinases (Homo sapiens, UniProt P31749); settings: AKT1, MK-28 1 µM, ATP 1 µM
[5] = target: panel of 391 kinases (Homo sapiens, UniProt Q15835); settings: GRK1, MK-28 1 µM, ATP 1 µM
[6] = target: panel of 391 kinases (Homo sapiens, UniProt Q13233); settings: MEKK1, MK-28 1 µM, ATP 1 µM
[7] = target: panel of 391 kinases (Homo sapiens, UniProt P17612); settings: PKA, MK-28 1 µM, ATP 1 µM
[8] = target: panel of 391 kinases (Homo sapiens, UniProt Q96S53); settings: TESK2, MK-28 1 µM, ATP 1 µM
[9] = target: panel of 391 kinases (Homo sapiens, UniProt Q86Y07); settings: VRK2, MK-28 1 µM, ATP 1 µM
[10] = target: panel of 391 kinases (Homo sapiens, UniProt P43250); settings: GRK6, MK-28 1 µM, ATP 1 µM
[11] = target: panel of 391 kinases (Homo sapiens, UniProt P06493); settings: MK-28 1 µM, ATP 1 µM; for remaining activity at 1 µM: read-out: % Enzyme Activity (relative to DMSO controls)
[12] = target: panel of 391 kinases (Homo sapiens, UniProt Q96KB5); settings: PBK/TOPK, MK-28 1 µM, ATP 1 µM
[13] = target: panel of 391 kinases (Homo sapiens, UniProt Q9UBS0); settings: p70S6Kb/RPS6KB2, MK-28 1 µM, ATP 1 µM
[14] = tested on: panel of 391 kinases; settings: for % Enzyme Activity (relative to DMSO controls): MK-28 1 µM, ATP 1 µM
[15] = target: panel of 391 kinases (Homo sapiens, UniProt Q15375); settings: EPHA7, MK-28 1 µM, ATP 1 µM
[16] = target: panel of 391 kinases (Homo sapiens, UniProt Q15759); settings: P38b/MAPK11, MK-28 1 µM, ATP 1 µM
[17] = target: panel of 391 kinases (Homo sapiens, UniProt P29597); settings: TYK2, MK-28 1 µM, ATP 1 µM
[18] = target: panel of 391 kinases (Homo sapiens, UniProt O94804); settings: LOK/STK10, MK-28 1 µM, ATP 1 µM
[19] = target: panel of 391 kinases (Homo sapiens, UniProt P49759); settings: CLK1, MK-28 1 µM, ATP 1 µM
[20] = target: panel of 391 kinases (Homo sapiens, UniProt Q00534); settings: MK-28 1 µM, ATP 1 µM; for remaining activity at 1 µM: read-out: % Enzyme Activity (relative to DMSO controls)
[21] = target: panel of 391 kinases (Homo sapiens, UniProt O75385); settings: ULK1, MK-28 1 µM, ATP 1 µM
[22] = target: panel of 391 kinases (Homo sapiens, UniProt Q86Z02); settings: HIPK1, MK-28 1 µM, ATP 1 µM
[23] = target: panel of 391 kinases (Homo sapiens, UniProt O14965); settings: Aurora A, MK-28 1 µM, ATP 1 µM
[24] = target: panel of 391 kinases (Homo sapiens, UniProt P25098); settings: GRK2, MK-28 1 µM, ATP 1 µM
[25] = target: panel of 391 kinases (Homo sapiens, UniProt P08069); settings: IGF1R, MK-28 1 µM, ATP 1 µM
[26] = target: panel of 391 kinases (Homo sapiens, UniProt P10721); settings: c-Kit, MK-28 1 µM, ATP 1 µM
[27] = read-out: % Enzyme Activity (relative to DMSO controls)

SMILES: CN(/N=C\c1ccc(O)c(O)c1)c1nc(-c2ccccc2)cc(-c2ccccc2)n1 [MK-28]
- % Enzyme Activity (relative to DMSO controls) [1]: 102.25%
- remaining activity at 1 µM [1, 27]: 105%
- % Enzyme Activity (relative to DMSO controls) [2]: 102.82%
- remaining activity at 1 µM [2, 27]: 106%
- % Enzyme Activity (relative to DMSO controls) [3]: 99.22%
- remaining activity at 1 µM [3, 27]: 101%
- % Enzyme Activity (relative to DMSO controls) [4]: 95.66%
- remaining activity at 1 µM [4, 27]: 96.7%
- % Enzyme Activity (relative to DMSO controls) [5]: 96.61%
- remaining activity at 1 µM [5, 27]: 102%
- % Enzyme Activity (relative to DMSO controls) [6]: 92.45%
- remaining activity at 1 µM [6, 27]: 95.1%
- % Enzyme Activity (relative to DMSO controls) [7]: 91.97%
- remaining activity at 1 µM [7, 27]: 93%
- % Enzyme Activity (relative to DMSO controls) [8]: 99.48%
- remaining activity at 1 µM [8, 27]: 101%
- % Enzyme Activity (relative to DMSO controls) [9]: 96.44%
- remaining activity at 1 µM [9, 27]: 97%
- % Enzyme Activity (relative to DMSO controls) [10]: 102.17%
- remaining activity at 1 µM [10, 27]: 104%
- % Enzyme Activity (relative to DMSO controls) ([11]; CDK1/cyclin A): 104.81%
- remaining activity at 1 µM ([11]; CDK1/cyclin A): 105%
- % Enzyme Activity (relative to DMSO controls) ([11]; CDK1/cyclin B): 94.54%
- remaining activity at 1 µM ([11]; CDK1/cyclin B): 95%
- % Enzyme Activity (relative to DMSO controls) ([11]; CDK1/cyclin E): 97.74%
- remaining activity at 1 µM ([11]; CDK1/cyclin E): 97.8%
- % Enzyme Activity (relative to DMSO controls) [12]: 93.64%
- remaining activity at 1 µM [12, 27]: 94.2%
- % Enzyme Activity (relative to DMSO controls) [13]: 91.85%
- remaining activity at 1 µM [13, 27]: 93.6%
- number of other hits showing more than 30% increase over control ([14]; 1 μM, 391-kinase panel): 3
- % Enzyme Activity (relative to DMSO controls) ([14]; LYN B): 100.85% and 99.31%
- % Enzyme Activity (relative to DMSO controls) ([14]; PKCb2): 90.95% and 90.23%
- % Enzyme Activity (relative to DMSO controls) ([14]; PKG1b): 113.02% and 112.43%
- % Enzyme Activity (relative to DMSO controls) [15]: 96.58%
- remaining activity at 1 µM [15, 27]: 98.6%
- % Enzyme Activity (relative to DMSO controls) [16]: 107.60%
- remaining activity at 1 µM [16, 27]: 109%
- % Enzyme Activity (relative to DMSO controls) [17]: 90.72%
- remaining activity at 1 µM [17, 27]: 91.3%
- % Enzyme Activity (relative to DMSO controls) [18]: 100.78%
- remaining activity at 1 µM [18, 27]: 101%
- % Enzyme Activity (relative to DMSO controls) [19]: 108.65%
- remaining activity at 1 µM [19, 27]: 109%
- % Enzyme Activity (relative to DMSO controls) ([20]; CDK6/cyclin D1): 98.75%
- remaining activity at 1 µM ([20]; CDK6/cyclin D1): 102%
- % Enzyme Activity (relative to DMSO controls) ([20]; CDK6/cyclin D3): 86.79%
- remaining activity at 1 µM ([20]; CDK6/cyclin D3): 87.6%
- % Enzyme Activity (relative to DMSO controls) [21]: 97.64%
- remaining activity at 1 µM [21, 27]: 100%
- % Enzyme Activity (relative to DMSO controls) [22]: 100.46%
- remaining activity at 1 µM [22, 27]: 101%
- % Enzyme Activity (relative to DMSO controls) [23]: 71.13%
- remaining activity at 1 µM [23, 27]: 73.2%
- % Enzyme Activity (relative to DMSO controls) [24]: 99.37%
- remaining activity at 1 µM [24, 27]: 99.8%
- % Enzyme Activity (relative to DMSO controls) [25]: 98.39%
- remaining activity at 1 µM [25, 27]: 100%
- % Enzyme Activity (relative to DMSO controls) [26]: 93.67%
- remaining activity at 1 µM [26, 27]: 93.8%
